Test results reported in patent US20240100172A1, “METHODS AND COMPOUNDS FOR TARGETED AUTOPHAGY” (Hangzhou Jijing Pharmaceutical Technology Limited, priority 2020, published 2024).
Marks after values point to notes of the source that are not given here.

Key:
KRAS = target: T1, KRAS (Homo sapiens, UniProt P01116, G12C); assay: KRAS levels in NCI-H2030 cells (Western blot); format: cell-based
T1 construct: endogenous in cells; host or cells: NCI-H2030
Procedure: The following protocol was used to test the effect of exemplary compounds on KRAS levels in NCI-H2030 cells.
On Day 1, seed NCI-N2030 cells were placed into 6-well plates (3.5×10^5 cells/well/2 mL) and incubated for 24 hours. On Day 2, 6 μL compound solutions were added into testing wells in order to obtain compound concentrations of 3.33 μM and 10 μM—with DMSO concentrations of 0.3%. The wells were thoroughly agitated and incubated for 24 hours. On Day 3, the supernatant in the testing wells was discarded, and the testing wells were washed once with 1 mL of cold PBS. Then, 100 μL of RIPA buffer (Boston BioProducts BP-115D) was added to the testing wells with 1× complete protease inhibitor (Roche, #4693116001) and phosphatase inhibitor (Roche, #4906837001). The wells were then agitated by pipetting a few times, the testing plates were held on ice for 30 minutes to affect complete lysis of the cells. The cell lysate from the testing wells was then collected into EP tubes, and the tubes were spun at about 20000×g for 10 minutes at 4° C., before collecting the supernatant from the testing cells.
Protein concentrations in the collected supernatants were measured using BCA methods. The cell lysate was mixed with 5× NuPAGE SDS Loading Buffer and heated at 100° C. for 10 minutes in a heat block. Then 15 μL samples (15 μg) were loaded into 26-well SDS-PAGE gel (Novex, WXP81626BOX) and the gels were processed at 120 V for 1.5 hours, prior to electrotransfer to an NC membrane using a wet-transfer method with 250 mA for 1.5 hours. The resulting membrane was then blocked for 1 hours with LICOR blocking buffer (LI-COR, 927-70001), and was then incubated with a primary antibody 1:1000 (Anti-KRAS (LS-C175665)) that was previously prepared in block buffer at 4° C. overnight. Then, the membrane was washed three times with 1×TBST for 5 minutes each washing, and the membrane was incubated with a secondary antibody GAM 1:5000 (anti-mouse IgG (LI-COR, 926-68070)) for 1 hour at room temperature. The membrane was then washed three times with 1×TBST for 5 minutes each washing, and the membrane was read on LiCOR.
Table 2 below summarizes the normalized KRAS levels in NCI-H2030 cells that were treated with the exemplary compounds of Examples 1-3 for 24 hours.

BTK = target: T2, BTK (Homo sapiens, UniProt Q06187); assay: BTK levels in NAMALWA cells (Western blot); format: cell-based; settings: 4 hours EBSS starvation
T2 construct: endogenous in cells; host or cells: NAMALWA
T2 sequence (Q06187 whole entry): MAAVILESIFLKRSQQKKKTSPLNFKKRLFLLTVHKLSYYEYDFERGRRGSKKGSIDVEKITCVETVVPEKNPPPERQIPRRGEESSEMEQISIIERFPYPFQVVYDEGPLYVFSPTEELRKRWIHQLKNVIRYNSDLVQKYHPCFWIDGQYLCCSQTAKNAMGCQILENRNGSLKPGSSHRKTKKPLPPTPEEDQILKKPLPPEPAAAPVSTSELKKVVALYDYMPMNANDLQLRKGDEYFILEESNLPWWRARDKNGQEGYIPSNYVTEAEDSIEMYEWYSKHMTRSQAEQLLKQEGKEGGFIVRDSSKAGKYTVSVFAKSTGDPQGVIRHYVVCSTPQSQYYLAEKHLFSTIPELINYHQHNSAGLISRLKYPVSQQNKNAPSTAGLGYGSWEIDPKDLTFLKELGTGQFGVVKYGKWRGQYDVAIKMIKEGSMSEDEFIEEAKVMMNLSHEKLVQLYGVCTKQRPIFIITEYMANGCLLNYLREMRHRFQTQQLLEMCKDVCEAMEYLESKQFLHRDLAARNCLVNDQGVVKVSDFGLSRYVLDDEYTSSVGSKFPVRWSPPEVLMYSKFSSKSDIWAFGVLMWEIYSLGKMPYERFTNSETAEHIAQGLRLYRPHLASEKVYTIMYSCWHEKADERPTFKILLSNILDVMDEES
Procedure: The following protocol was used to test the effect of exemplary compounds on BTK levels in NAMALWA cells.
On Day 1, NAMALWA cells were seeded in 6 well plates at concentration of 2×10^6/well and were incubated overnight. On Day 2, the cells were treated at indicated concentrations following 4 hours of starvation in Earle's Balanced Salt Solution (EBSS, Gibco, #24010-043). After compound treatment for 24 hours, cells were collected and samples were prepared. Fresh, ice cold 1×RIPA lysis buffer supplemented with protease and phosphatase inhibitors was then added to the cell samples, followed by incubation on ice for 30 minutes, and then cells samples were collected. Cell samples were then centrifuged at 4° C., 12,000 rpm for 15 minutes and the resulting supernatant was collected. Protein concentrations within the collected samples were then measured using BCA kit (Solarbio, PC0020), and the cell lysate was mixed with SDS loading buffer and heated at 100° C. for 5 minutes.
15 μg of protein from the samples prepared above was loaded in 4-12% Bis-Tris Gels in 1×MOPS buffer, and the samples were run at 120 V for 120 min. Transfer of the resulting gels was then carried out using the Transblot system with NC membrane, and the membranes were blocked with 5% BSA in TBST for 1 hr at room temperature. Membrane hybridization was then carried out overnight at 4° C. with primary antibodies (anti-BTK, Cell Signaling Technology #8547, Rabbit, 1:1000 diluted in 1% BSA in TBST), and the resulting membranes were washed with TBST for 3×10 min at RT, and then incubated with second antibodies (Goat anti-Rabbit IgG H&L, IRDye® 800CW, LI-COR, 926-32211, 1:5000 diluted in 1% BSA in TBST) in 1% BSA for 1 hr at room temperature. After washing the resulting membranes with TBST for 10 min, 3 times at room temperatures, the membranes were imaged using a Li-COR imaging system.
Table 3 below summarizes the normalized BTK levels in NAMALWA cells treated with the exemplary compounds of Examples 6-8 for 24 hours.

Row | Structure (SMILES) | Normalized KRAS levels in NCI-H2030 cells treated with Compounds for 24 hours (KRAS; 3.33 μM compound concentration) [%] | Normalized KRAS levels in NCI-H2030 cells treated with Compounds for 24 hours (KRAS; 10 μM compound concentration) [%] | Normalized BTK levels in NAMALWA cells treated with Compounds for 24 hours after 4 hours of starvation in EBSS (BTK; 3.33 μM compound concentration) [%] | Normalized BTK levels in NAMALWA cells treated with Compounds for 24 hours after 4 hours of starvation in EBSS (BTK; 10 μM compound concentration) [%] | further results
1 | C=C(F)C(=O)N1CCN(c2nc(OC[C@@H]3CCCN3CCCOCCOc3c(Br)cc(C=C4C(=O)Nc5ccc(I)cc54)cc3Br)nc3c2CCN(c2cccc4cccc(Cl)c24)C3)C[C@@H]1CC#N [Example 2, 2-((S)-4-(7-(8-chloronaphthalen-1-yl)-2-(((S)-1-(3-(2-(2,6-dibromo-4-((5-iodo-2-oxoindolin-3-ylidene)methyl)phenoxy)ethoxy)propyl)pyrrolidin-2-yl)methoxy)-5,6,7,8-tetrahydropyrido[3,4-d]pyrimidin-4-yl)-1-(2-fluoroacryloyl)piperazin-2-yl)acetonitrile] | 45.1 | 48.6 |  |  | 
2 | Nc1ncnc2c1c(-c1ccc(Oc3ccccc3)cc1)nn2C1CCN(CCOCCOCCOCCOCCN2C(=O)C(=Cc3cc(Br)c(O)c(Br)c3)c3cc(I)ccc32)CC1.O=CO [Example 6, 1-(14-(4-(4-amino-3-(4-phenoxyphenyl)-1H-pyrazolo[3,4-d]pyrimidin-1-yl)piperidin-1-yl)-3,6,9,12-tetraoxatetradecyl)-3-(3,5-dibromo-4-hydroxybenzylidene)-5-iodo indolin-2-one formate] |  |  |  |  | Normalized BTK levels in NAMALWA cells treated with Compounds for 24 hours after 4 hours of starvation in EBSS (BTK; 10 μM column, footnote: tested at 11.1 uM from 100 uM top concentration): ~58.7%*; Normalized BTK levels in NAMALWA cells treated with Compounds for 24 hours after 4 hours of starvation in EBSS (BTK; 30 μM column, footnote: tested at 33.3 uM from 100 uM top concentration): ~30.1%*
3 | Nc1ncnc2c1c(-c1ccc(Oc3ccccc3)cc1)nn2C1CCN(CCOCCOCCN/C(=C2\C(=O)Nc3ccc(Br)cc32)c2cccc(O)c2)CC1 [Example 8, (3Z)-3-[[2-[2-[2-[4-[4-amino-3-(4-phenoxyphenyl)pyrazolo[3,4-d]pyrimidin-1-yl]-1-piperidyl]ethoxy]ethoxy]ethylamino]-(3-hydroxyphenyl)methylene]-5-bromo-indolin-2-one] |  |  | 83.1 | 66.3 | 
4 | C=C(F)C(=O)N1CCN(c2nc(OC[C@@H]3CCCN3CCCOCCOCCOCCOc3c(Br)cc(C=C4C(=O)Nc5ccc(I)cc54)cc3Br)nc3c2CCN(c2cccc4cccc(Cl)c24)C3)C[C@@H]1CC#N [Example 1, 2-((S)-4-(7-(8-chloronaphthalen-1-yl)-2-(((S)-1-(3-(2-(2-(2-(2,6-dibromo-4-((5-iodo-2-oxoindolin-3-ylidene)methyl)phenoxy)ethoxy)ethoxy)ethoxy)propyl)pyrrolidin-2-yl)methoxy)-5,6,7,8-tetrahydropyrido[3,4-d]pyrimidin-4-yl)-1-(2-fluoroacryloyl)piperazin-2-yl)acetonitrile] | 84.9 | 87.5 |  |  | 
5 | Nc1ncnc2c1c(-c1ccc(Oc3ccccc3)cc1)nn2C1CCN(CCOCCOCCOCCN/C(=C2\C(=O)Nc3ccc(Br)cc32)c2cccc(O)c2)CC1.O=CO [Example 7, (3Z)-3-[[2-[2-[2-[2-[4-[4-amino-3-(4-phenoxyphenyl)pyrazolo[3,4-d]pyrimidin-1-yl]-1-piperidyl]ethoxy]ethoxy]ethoxy]ethylamino]-(3-hydroxyphenyl)methylene]-5-bromo-indolin-2-one formate] |  |  | 67.0 | 48.2 | 
6 | C=C(F)C(=O)N1CCN(c2nc(OC[C@@H]3CCCN3CCCOCCOCCOc3c(Br)cc(C=C4C(=O)Nc5ccc(I)cc54)cc3Br)nc3c2CCN(c2cccc4cccc(Cl)c24)C3)C[C@@H]1CC#N [Example 3, 2-((S)-4-(7-(8-chloronaphthalen-1-yl)-2-(((S)-1-(3-(2-(2-(2,6-dibromo-4-((5-iodo-2-oxoindolin-3-ylidene)methyl)phenoxy)ethoxy)ethoxy)propyl)pyrrolidin-2-yl)methoxy)-5,6,7,8-tetrahydropyrido[3,4-d]pyrimidin-4-yl)-1-(2-fluoroacryloyl)piperazin-2-yl)acetonitrile] | 63.0 | 65.7 |  |  | 
